Active and inactive are the calls of the source. No cut-off for these calls is given here. Residues, ends and D or L forms follow the SMILES beside them. *: point of attachment. Cbz = O=C(OCc1ccccc1)*; CH2F = FC*
How the values were obtained:
[1] = target: T1, von Hippel-Lindau disease tumor suppressor/Phosphatidylinositol 4,5-bisphosphate 3-kinase catalytic subunit beta isoform (Homo sapiens, UniProt P42338+P40337); assay: PROTAC activity at PI3K-p110beta/VHL in human MCF7/ADM cells assessed as reduction in PI3K-p110beta level at 25 uM measured for 24 hrs by Western blot analysis; format: cell-based
T1 sequence (P40337 whole entry, looked up, canonical isoform): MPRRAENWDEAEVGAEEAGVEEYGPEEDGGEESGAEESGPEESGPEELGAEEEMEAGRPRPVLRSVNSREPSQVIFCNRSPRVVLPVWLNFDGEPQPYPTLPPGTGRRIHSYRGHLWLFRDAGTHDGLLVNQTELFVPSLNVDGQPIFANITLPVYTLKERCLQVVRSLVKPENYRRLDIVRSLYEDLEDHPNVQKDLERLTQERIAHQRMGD
T1 sequence (P42338 whole entry, looked up, canonical isoform): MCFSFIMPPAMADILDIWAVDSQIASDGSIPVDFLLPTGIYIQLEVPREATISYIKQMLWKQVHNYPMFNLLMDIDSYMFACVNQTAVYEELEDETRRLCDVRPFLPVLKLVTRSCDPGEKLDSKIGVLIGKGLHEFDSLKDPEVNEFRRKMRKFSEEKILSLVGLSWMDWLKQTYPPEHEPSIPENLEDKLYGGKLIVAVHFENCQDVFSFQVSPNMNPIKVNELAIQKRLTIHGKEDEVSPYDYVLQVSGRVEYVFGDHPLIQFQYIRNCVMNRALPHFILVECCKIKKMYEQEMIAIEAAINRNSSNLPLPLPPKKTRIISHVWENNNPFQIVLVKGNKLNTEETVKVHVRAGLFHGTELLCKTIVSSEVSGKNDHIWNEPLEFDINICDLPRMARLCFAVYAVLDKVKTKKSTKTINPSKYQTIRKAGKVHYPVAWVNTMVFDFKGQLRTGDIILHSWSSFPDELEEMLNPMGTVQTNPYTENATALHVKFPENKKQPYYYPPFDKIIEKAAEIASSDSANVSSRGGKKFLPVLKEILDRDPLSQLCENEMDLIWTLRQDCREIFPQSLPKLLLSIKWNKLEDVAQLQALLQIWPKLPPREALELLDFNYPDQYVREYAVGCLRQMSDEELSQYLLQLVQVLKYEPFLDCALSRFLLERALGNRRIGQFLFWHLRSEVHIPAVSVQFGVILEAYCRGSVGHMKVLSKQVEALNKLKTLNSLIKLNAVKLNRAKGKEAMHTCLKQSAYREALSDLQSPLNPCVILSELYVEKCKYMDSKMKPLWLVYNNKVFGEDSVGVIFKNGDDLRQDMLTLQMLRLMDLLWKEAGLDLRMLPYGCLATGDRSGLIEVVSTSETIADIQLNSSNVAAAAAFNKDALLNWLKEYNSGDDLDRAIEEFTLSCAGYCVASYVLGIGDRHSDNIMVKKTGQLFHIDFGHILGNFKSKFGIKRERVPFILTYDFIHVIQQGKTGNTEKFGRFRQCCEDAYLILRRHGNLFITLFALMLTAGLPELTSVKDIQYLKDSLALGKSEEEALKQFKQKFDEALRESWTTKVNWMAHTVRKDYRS

A549 = assay: Antitumor activity against human A549 cells assessed as cell viability incubated for 24 hrs by MTT assay; format: functional, cell-based; settings: A549, 24 h
A549/CDDP [2] = assay: Antitumor activity against human A549/DDP cells assessed as cell viability incubated for 24 hrs by MTT assay; format: functional, cell-based
[3] = target: T1, von Hippel-Lindau disease tumor suppressor/Phosphatidylinositol 4,5-bisphosphate 3-kinase catalytic subunit beta isoform; assay: PROTAC activity at PI3K-p110beta/VHL in human A549/DDP cells assessed as reduction in PI3K-p110beta level at 25 uM measured for 24 hrs by Western blot analysis; format: cell-based
MCF7/ADM [4] = assay: Antitumor activity against human MCF7/ADM cells xenografted in BALB/c mouse assessed as reduction in tumor volume at 50 mg/kg, ip measured every 2 days; format: functional, organism-based; settings: time 2.0 day
MCF7 = assay: Antitumor activity against human MCF7 cells assessed as cell viability incubated for 24 hrs by MTT assay; format: functional, cell-based; settings: MCF7, 24 h
[5] = Antitumor activity against human MCF7/ADM cells assessed as cell viability incubated for 24 hrs by MTT assay; format: functional, cell-based
[6] = target: T1, von Hippel-Lindau disease tumor suppressor/Phosphatidylinositol 4,5-bisphosphate 3-kinase catalytic subunit beta isoform; assay: PROTAC activity at PI3K-p110beta/VHL in human MCF7/ADM cells assessed as reduction in PI3K-p110beta mRNA level at 25 uM measured for 24 hrs by qRT-PCR analysis; format: cell-based
[7] = target: T1, von Hippel-Lindau disease tumor suppressor/Phosphatidylinositol 4,5-bisphosphate 3-kinase catalytic subunit beta isoform; assay: PROTAC activity at PI3K-p110beta/VHL in human A549/DDP cells assessed as reduction in PI3K-p110beta mRNA level at 25 uM measured for 24 hrs by qRT-PCR analysis; format: cell-based
[8] = target: T1, von Hippel-Lindau disease tumor suppressor/Phosphatidylinositol 4,5-bisphosphate 3-kinase catalytic subunit beta isoform; assay: PROTAC activity at PI3K-p110beta/VHL in human MCF7/ADM cells assessed as induction of PI3K-p110beta degradation at 2.5 uM incubated for 24 hrs by Western blot analysis; format: cell-based
[9] = target: T1, von Hippel-Lindau disease tumor suppressor/Phosphatidylinositol 4,5-bisphosphate 3-kinase catalytic subunit beta isoform; assay: PROTAC activity at PI3K-p110beta/VHL in human A549/DDP cells assessed as induction of PI3K-p110beta degradation at 2.5 uM incubated for 24 hrs by Western blot analysis; format: cell-based
[10] = target: T1, von Hippel-Lindau disease tumor suppressor/Phosphatidylinositol 4,5-bisphosphate 3-kinase catalytic subunit beta isoform; assay: PROTAC activity at PI3K-p110beta/VHL in human A549/DDP cells assessed as induction of PI3K-p110beta degradation at 25 uM incubated for 24 hrs by Western blot analysis; format: cell-based
[11] = target: T1, von Hippel-Lindau disease tumor suppressor/Phosphatidylinositol 4,5-bisphosphate 3-kinase catalytic subunit beta isoform; assay: PROTAC activity at PI3K-p110beta/VHL in human MCF7/ADM cells assessed as induction of PI3K-p110beta degradation at 25 uM incubated for 24 hrs by Western blot analysis; format: cell-based
MCF7/ADM [12] = assay: Induction of cell death in human MCF-7/ADM cells at 25 uM incubated for 24 hrs; format: functional, cell-based
A549/CDDP [13] = assay: Induction of cell death in human A549/DDP cells at 25 uM incubated for 24 hrs; format: functional, cell-based
A549/CDDP [14] = assay: Activation of unfolded protein response in human A549/DDP cells at 25 uM incubated for 24 hrs by PROTEOSTATR aggresome dye based fluorescent microscopy; format: functional, cell-based
A549/CDDP [15] = assay: Induction of apoptosis in human A549/DDP cells at 25 uM incubated for 24 hrs by Annexin V-FITC/PI staining based flow cytometry analysis (reference value: 4.27%); format: functional
[16] = Induction of apoptosis in human MCF7/ADM cells at 25 uM incubated for 24 hrs by Annexin V-FITC/PI staining based flow cytometry analysis (reference value: 5.20%); format: functional

SMILES	Activity [8]	Activity [9]	Activity [10]	Activity [11]	other results
Cc1cc(C(C)Nc2ccccc2)c2nc(N3CCOCC3)cc(=O)n2c1 (configuration not stated)					Activity [1]: inactive; IC50 (A549): 88.3 µM; IC50 (A549/CDDP [2]): 57.9 µM; Activity [3]: inactive; Activity (MCF7/ADM [4]): Active; IC50 (MCF7): 75.1 µM; IC50 [5]: 50.8 µM; Activity [6]: Active; Activity [7]: inactive
Cc1cc(C(C)Nc2ccccc2C(=O)NCCCCCC(=O)N[C@H](C(=O)N2C[C@H](O)C[C@H]2C(=O)NCc2ccc(-c3scnc3C)cc2)C(C)(C)C)c2nc(N3CCOCC3)cc(=O)n2c1 (some centres not stated)	Active	Active	Active	Active	
Cc1cc(C(C)Nc2ccccc2C(=O)NCCC(=O)N[C@H](C(=O)N2C[C@H](O)C[C@H]2C(=O)NCc2ccc(-c3scnc3C)cc2)C(C)(C)C)c2nc(N3CCOCC3)cc(=O)n2c1 (some centres not stated)	Active	Active	Active	Active	
CC(C)[C@H](NC(=O)OCc1ccccc1)C(=O)N[C@@H](C)C(=O)N[C@@H](CC(=O)O)C(=O)CF (Cbz-Val-Ala-Asp-CH2F)					Activity (MCF7/ADM [12]): Active; Activity (A549/CDDP [13]): Active
Cc1cc(C(C)Nc2ccccc2C(=O)NCCCCCCCCCCC(=O)N[C@H](C(=O)N2C[C@H](O)C[C@H]2C(=O)NCc2ccc(-c3scnc3C)cc2)C(C)(C)C)c2nc(N3CCOCC3)cc(=O)n2c1 (some centres not stated)	Active	Active	Active	Active	
O=c1cc(N2CCOCC2)oc2c(-c3ccccc3)cccc12					Activity (A549/CDDP [14]): Active
Cc1cc(C(C)Nc2ccccc2C(=O)NCCCCCCCC(=O)N[C@H](C(=O)N2C[C@H](O)C[C@H]2C(=O)NCc2ccc(-c3scnc3C)cc2)C(C)(C)C)c2nc(N3CCOCC3)cc(=O)n2c1 (some centres not stated)	Active	Active	Active	Active	
C[C@H](CCC(=O)NCCS(=O)(=O)O)[C@H]1CC[C@H]2[C@@H]3[C@@H](O)C[C@@H]4C[C@H](O)CC[C@]4(C)[C@H]3CC[C@]12C [TAURURSODIOL]					Activity (MCF7/ADM [12]): Active; Activity (A549/CDDP [15]): 18.57%; Activity [16]: 21.48%; Activity (A549/CDDP [13]): Active
N#CSc1cc(SC#N)c(N)nc1N					Activity (A549/CDDP [14]): Active
Cc1cc(C(C)Nc2ccccc2C(=O)NCCCC(=O)N[C@H](C(=O)N2C[C@H](O)C[C@H]2C(=O)NCc2ccc(-c3scnc3C)cc2)C(C)(C)C)c2nc(N3CCOCC3)cc(=O)n2c1 (some centres not stated)	Active	Active	Active	Active	
